In patent publication US20070270348A1, “Compositions and Methods for Modulating Insulin-Activated Nitric Oxide Synthase” (priority 2004, published 2007):
“Also recorded” adds a separate entry of the source. Read-outs that look alike come from different tables or passages of the source. Ends that are not written are not given here.

What was measured:
human erythrocytes = assay: Stimulation of nitric oxide synthesis from l-arginine in human erythrocyte suspension; assay type: cell-based
Experimental: Stimulation of nitric oxide synthesis from l-arginine by allimin in human erythrocytes was shown by incubation of a human erythrocyte suspension with different concentrations of purified allimin.
Fractions (1.5 ml each) were collected and the ability of each fraction to stimulate nitric oxide synthesis from l-arginine in human erythrocytes was determined.
The stimulation of nitric oxide synthesis was determined by assaying 0.1 ml of aqueous extracts of garlic or benzene purified allimin or different fractions from the SEPHADEX® column to erythrocyte suspensions in Kreb's buffer, pH 7.4. The formation of nitric oxide in the reaction mixture was quantitated by the conversion of oxyhemoglobin to methemoglobin. Quantitative amounts of nitric oxide in the reaction mixture were confirmed independently by chemiluminescence technique. Briefly 1.0 ml of the reaction supernatant was treated with 15 mM (final concentration) of oxyhemoglobin under N2. The spectral changes at 650, 630 and 575 nm due to the conversion of oxyhemoglobin to methemoglobin was continuously monitored by using a scanning BECKMAN spectrophotometer to quantitate nitric oxide formation using greater than 99% percent pure preparation of nitric oxide.
Blood was collected from healthy male and female volunteers, between the ages of 25-50 years, who had not taken any medication for at least for 14 days prior to the donation of blood. The blood was anti-coagulated by adding 1 volume 130 mM sodium citrate to 9 volumes of blood, mixed by gentle inversion, and the erythrocyte suspension was prepared.

[1] = tested on: alloxan-induced diabetic mice; conditions: for duration of euglycemia / normal glucose levels after one dose: single oral bolus; for plasma glucose level: oral allimin
Experimental: To determine whether the increased plasma nitric oxide level achieved through the oral administration of allimin would result in the decrease of elevated plasma glucose levels in diabetic mice, the plasma glucose level was continuously monitored. […] In a further study, diabetic mice were injected with insulin (200 μunits/25 g) in their hind leg muscle instead of oral administration of allimin.
Inbred albino mice of both sexes were raised in an institutional facility from birth to age 2 months and weighed between 20-25 grams. These mice were allowed free access to feed and sterile water under 12 hour cycles of alternating light and dark. A total of 60 mice were studied. Group I consisted of 20 mice that were divided into 4 subgroups of 5 mice per subgroup. […] Group II consisted of 20 mice that were divided in 4 groups, 5 mice in each subgroup. All of the mice were made diabetic, one of the diabetic subgroup of mice received insulin and the second diabetic subgroup received oral administration of allimin.
Alloxan was used to induce diabetes in mice in accordance with standard methods. Blood glucose levels were determined by using glucose oxidase strips in a glucometer. The mice were considered to be diabetic when the blood glucose level after overnight fasting were 250-300 mg/dl as compared to 70-80 mg/dl in non-diabetic mice. […] When these diabetic mice were fed ad libitum, the blood glucose level increased to 400-450 mg/dl after 2 hours of feeding.

[2] = tested on: mice epitrochlearis muscle; assay: Glucose oxidation in epitrochlearis muscle; assay type: cell-based; conditions: insulin 200 μU/ml, allimin 50 μg/ml, NAME 10 μg/ml, mean ± SD
Experimental: (§1) The in vitro effect of allimin on glucose transport and glucose oxidation was compared with that of insulin in mice epitrochlearis muscle which is reported to be a model target tissue for insulin action. […] Addition of NAME to the incubation mixture inhibited the insulin-mimicking effect of allimin on both glucose transport and glucose oxidation. In another study, membranes from epitrochlearis muscle were prepared and the effect of allimin on the activation of the membrane tyrosine kinase and PI3 kinase were determined by incubating the membrane preparation with either insulin or allimin.
The effect of allimin on the oxidation of glucose was compared with that of insulin. […] Glucose oxidation was determined.
(§2) Mice epitochlearis muscle and the membrane of the muscle were prepared. Glucose transport activity was determined by incubating […] of epitochlearis muscle in Krebs-Ringer buffer, pH 7.4, in the presence of either insulin ([…]) or allimin ([…]) using a 2-deoxy D-^14C glucose. Glucose oxidation was determined by incubating […] of epitrochlearis muscle in Krebs-Ringer buffer, pH 7.4, in the presence of either insulin or allimin as indicated using U-14C glucose. […]

membrane tyrosine kinase = assay: Membrane tyrosine kinase activation; assay type: biochemical, mice; conditions: insulin 200 μU/ml, allimin 50 μg/ml, none = 100, mean ± SD
Experimental: as §1
The effect of allimin on the activation of epitrochlearis muscle membrane was determined using monoclonal anti-phosphotyrosine kinase antibody, Glu^80 Tyr^80 copolymer, and [^32P]-ATP and compared with that of insulin.
as §2

EAC cells = assay: Viability of EAC cells in peritoneal fluid; assay type: in vivo, Swiss albino mice
Experimental: Experiments were performed to determine the effects of allimin on the viability of EAC cells, a measure of the anti-neoplastic activity of allimin. Total EAC count (dead+viable cells) in peritoneal fluid was determined after 14 days of injection of EAC in the allimin treated and the untreated mice. […] It was noted that 25% of the viable EAC in the fluid of allimin-treated mice were twice as large (size) as compared to those in the untreated mice. This increase in cell size is indicative of the onset of death and the loss of the ability to regulate osmotic pressure (Ballas (1999) Merck Manual, Merck Research Laboratories, Whitehouse Station, N.J., pp. 1002-1023). The cellular basis for the decreased viability of the carcinoma cells in the allimin-treated mice was tested using a DNA fragmentation assay (Liu et al. (2000) Nucleic Acids Res. 28:4180-4188).

[3] = tested on: non-diabetic and alloxan-induced diabetic mice; assay: Plasma nitric oxide level after oral administration in mice; assay type: in vivo
Experimental: The effect of oral administration of allimin on the plasma nitric oxide level in diabetic and non-diabetic mice was determined using alloxan-induced diabetic mice as compared to normal non-diabetic mice. […] Allimin was orally administered (75 μg/kg body weight) to non-diabetic and alloxan-induced diabetic mice. The plasma nitric oxide level was measured on different days. Results were obtained from 10 mice in each group in triplicate. While the plasma nitric oxide level in the diabetic mice was 0.1±0.02 nmol/ml, the nitric oxide level in the non-diabetic mice was 0.75±0.05 nmol/ml (p<0.05). Upon oral administration of allimin (75 micrograms/kg body weight), the plasma nitric oxide level was increased to 0.45±0.05 nmol/ml within 24 hours and continued to increase thereafter, to a maximum of 0.8±0.1 nmol/ml on the third day. On the fourth day, the plasma nitric oxide level began to gradually decrease. On the sixth day, the plasma nitric oxide level returned to the pretreatment level in the diabetic mice.
A total of 60 mice were studied.

[4] = tested on: mice epitrochlearis muscle; assay: Glucose transport activity in epitrochlearis muscle; assay type: cell-based; conditions: insulin 200 μU/ml, allimin 50 μg/ml, NAME 10 μg/ml, mean ± SD
Experimental: as §1
Mice epitochlearis muscle and the membrane of the muscle were prepared. Glucose transport activity was determined by incubating […] of epitochlearis muscle in Krebs-Ringer buffer, pH 7.4, in the presence of either insulin ([…]) or allimin ([…]) using a 2-deoxy D-^14C glucose. Glucose oxidation was determined by incubating […] of epitrochlearis muscle in Krebs-Ringer buffer, pH 7.4, in the presence of either insulin or allimin as indicated using U-14C glucose. Insulin- or allimin-induced activation of tyrosine kinase and PI3 kinase activities of the membrane preparation were determined using anti-phosphotyrosine antibody and PI3 kinase antibody, respectively, as described. Results shown in Table 4 are mean ±SD of 5 to 6 experiments using different animals.

[5] = tested on: Ehrlich's ascitic carcinoma cells (EAC cells); assay: Survival and body weight of mice with Ehrlich's carcinoma ascites; conditions: daily allimin
Text: In addition to normal or control mice, ascitic carcinoma was induced in Swiss albino mice by injecting approximately 10^6 Ehrlich's ascitic carcinoma cells (EAC cells) into the peritoneal cavity of mice (Hartveit et al. (1970) Acta. Pathol. Microbiol. Scand. 78:516-524). Animals were divided into two groups, one group receiving laboratory chow alone and the other receiving allimin (75 micrograms/kg body weight/day) along with laboratory chow. Animals in each group were given the respective diets for 10 days before both groups were injected with EAC cells. Dietary treatment then continued during ascites development such that an increase of an EAC cell count to 5×10^6 cells/ml was achieved.

PI3 kinase = PI3 kinase activation of muscle membrane; assay type: biochemical, mice; conditions: insulin 200 μU/ml, allimin 50 μg/ml, none = 100, mean ± SD
Experimental: as §1
The activation of PI3 kinase of mice epitrochlearis muscle membrane either by allimin or insulin was determined using PI3 kinase antibody. […] The PI3 kinase activity was determined by CHCl3—CH3OH extraction and HPLC.
as §2

[6] = tested on: ADP-induced platelet aggregation; assay: ADP-induced platelet aggregation in platelet rich plasma; assay type: cell-based; conditions: 40 nM, 30 minutes at 23° C., 6 μM ADP
Experimental: Given the role of nitric oxide in the function of platelets it is was determined whether allimin could modulate platelet aggregation. Platelet Rich Plasma (PRP) was isolated from citrated blood and incubated with […] Allimin for 30 minutes at 23° C. Subsequently, 6 μM adenosine 5′-diphosphate (ADP) was added and inhibition of ADP-induced platelet aggregation was recorded and compared with a control.

mouse erythrocytes = assay: Nitric oxide production in erythrocytes of mice injected with EAC cells; conditions: for NO produced by erythrocytes: EAC mice, allimin 75 micrograms/kg/day oral
Experimental: Using a well-established mouse model for anti-neoplastic drug testing (Hartveit et al. (1970) Acta. Pathol. Microbiol. Scand. 78:516-524), the effects of oral administration of allimin on the production of nitric oxide in mouse erythrocytes was examined. Blood was drawn from the tail vein of Swiss albino mice (2 months of age) and was anti-coagulated by adding sodium citrate to the blood sample. The erythrocyte suspension was prepared according to standard methods (Ray et al. (1986) Biochim. Biophys. Acta. 856:421-427). […] The formation of nitric oxide in the reaction mixture was quantitated by the conversion of oxyhemoglobin to methemaglobin (Jia et al. (1996) Nature 380:221-226) and verified by chemiluminescence techniques (Sinha et al. (1999) Life Sci. 265:2687-2696). In addition to normal or control mice, ascitic carcinoma was induced in Swiss albino mice by injecting approximately 10^6 Ehrlich's ascitic carcinoma cells (EAC cells) into the peritoneal cavity of mice (Hartveit et al. (1970) Acta. Pathol. Microbiol. Scand. 78:516-524). Animals were divided into two groups, one group receiving laboratory chow alone and the other receiving allimin (75 micrograms/kg body weight/day) along with laboratory chow. Animals in each group were given the respective diets for 10 days before both groups were injected with EAC cells. Dietary treatment then continued during ascites development such that an increase of an EAC cell count to 5×10^6 cells/ml was achieved.
For the preparation of erythrocyte suspensions from mice, blood was drawn from the tail vein and anti-coagulated by adding sodium citrate to the blood sample and a suspension was made as described by Ray et al. ((1986) Biochim. Biophys. Acta 856:421-427).

COC(=O)[C@@H](N)CCCNC(=N)N[N+](=O)[O-] [NAME, NG-nitro L-arginine methyl ester, reference compound]
inhibition of allimin-stimulated nitric oxide synthesis (human erythrocytes; 10 μM NAME added to reaction mixture with allimin): completely inhibited; also recorded: complete inhibition

Allimin (XMIPTNGEGLYAGQSLDVEQYKFIMRPDDNLVXYX; X: residue not identified in the source; listed as Allium sp.)
duration of euglycemia / normal glucose levels after one dose ([1]; diabetic animals): up to four or five days | duration of euglycemia / normal glucose levels after one dose ([1]; diabetic animals, listed as allimin): four to five consecutive days | plasma glucose level ([1]; diabetic mice, next four days): 120 to 130 mg/dL | plasma glucose level ([1]; diabetic mice, sixth day): above 350 mg/dl | plasma glucose level ([1]; diabetic mice, within next 12 hours, initial 470±20): 120 ± 10 mg/dL | Glucose Oxidation [2]: 306 ± 82 nmol/g protein/minute | Tyrosine kinase activation (membrane tyrosine kinase): 215 ± 10 % activation | concentration at which synthesis of nitric oxide was maximally stimulated (human erythrocytes; human erythrocyte suspension): 8 nM | Specific Activity (nmol NO/mg/h) (human erythrocytes; purification step of garlic extract, stimulation of NO synthesis): 563.75 nmol NO/mg/h | total EAC count (dead+viable cells) in peritoneal fluid (EAC cells; 14 days after injection of EAC): 7×10^6 cells/ml | dead EAC count in peritoneal fluid (EAC cells; 14 days after injection of EAC, untreated 3×10^4): 2×10^5 cells/ml | pathway of EAC cell death (DNA fragmentation assay) (EAC cells; oral allimin): induced the necrotic pathway | viable EAC twice as large as in untreated mice (EAC cells; peritoneal fluid of treated mice): 25% | duration of elevation of plasma nitric oxide ([3]; diabetic mice, one time oral bolus dose): about five days; also recorded: four to five days | day plasma nitric oxide level returned to pretreatment level ([3]; diabetic mice, single oral 75 micrograms/kg): sixth day | plasma nitric oxide level, maximum ([3]; diabetic mice, single oral 75 micrograms/kg, third day): 0.8 ± 0.1 nmol/mL | plasma nitric oxide level ([3]; diabetic mice, single oral 75 micrograms/kg, within 24 hours, pretreatment 0.1±0.02): 0.45 ± 0.05 nmol/mL | day plasma nitric oxide level decreased to pretreatment level ([3]; non-diabetic mice, oral feeding): fourth day | Glucose transport [4]: 82 ± 6 nmol/g protein/minute | survival at 20 days ([5]; controls succumbed by day 20): survived the EAC carcinogenic insult at 20 days | mice surviving at least 40 days ([5]; p<0.01): Ten percent | PI3 kinase activation (PI3 kinase): 187 ± 12 % activation | inhibition of ADP-induced platelet aggregation [6]: potent inhibitor of platelet aggregation | nitric oxide production from erythrocytes restored to (mouse erythrocytes; allimin fed 10 days after the carcinogenic insult, 4.02% without): 92.78% | NO produced by erythrocytes (mouse erythrocytes; day 1): 0.569 ± 0.02 nmol NO produced/10^8 cells/hour | NO produced by erythrocytes (mouse erythrocytes; day 5): 0.392 ± 0.01 nmol NO produced/10^8 cells/hour | NO produced by erythrocytes (mouse erythrocytes; day 10): 0.408 ± 0.02 nmol NO produced/10^8 cells/hour | NO produced by erythrocytes (mouse erythrocytes; day 15): 0.440 ± 0.01 nmol NO produced/10^8 cells/hour | NO produced by erythrocytes (mouse erythrocytes; day 20): 0.498 ± 0.02 nmol NO produced/10^8 cells/hour | NO produced by erythrocytes (mouse erythrocytes; day 25): 0.532 ± 0.02 nmol NO produced/10^8 cells/hour | NO produced by erythrocytes (mouse erythrocytes; day 30): 0.528 ± 0.03 nmol NO produced/10^8 cells/hour | reduction of nitric oxide production in erythrocytes (mouse erythrocytes; twenty days after EAC injection, dietary allimin, 86.72% without): 12.48%

Insulin: Insulin (trade name HUMULIN, obtained from Eli Lilly) [reference compound]
duration of control of hyperglycemia ([1]; diabetic animals, single intramuscular injection): less than 24 hours | blood glucose level after injection ([1]; diabetic mice, 200 μunits/25 g in hind leg muscle, within next 24 hours): 350 ± 20 mg/dL | effect of oral administration on elevated blood glucose level ([1]; diabetic mice, oral): no effect | Glucose Oxidation [2]: 278 ± 80 nmol/g protein/minute | Tyrosine kinase activation (membrane tyrosine kinase): 210 ± 18 % activation | Glucose transport [4]: 75 ± 4 nmol/g protein/minute | PI3 kinase activation (PI3 kinase): 155 ± 10 % activation
